What was measured:
HEL cells = assay: Minimum cytotoxic concentration, alteration of cell morphology in HEL cells; format: cell-based, human; conditions: for Minimum cytotoxic concentration (HEL): Table 2, microscopically detectable alteration of cell morphology; for Minimum cytotoxic concentration (MCC) (HEL): Table 1, microscopically detectable alteration of normal cell morphology
TK+ VZV strain YS = assay: Plaque reduction, TK+ VZV strain YS in HEL cells; format: cell-based, varicella-zoster virus; conditions: Human alphaherpesvirus 3, HEL, read-out: EC50 TK+ VZV strains YS
HIV-1 = conditions: cited from earlier work

Nc1nc2c(ncn2COCCO)c(=O)[nH]1 [Acyclovir, reference compound]
Minimum cytotoxic concentration (HEL) (HEL cells): >400 µM

O=c1[nH]c(=O)n([C@H]2C[C@H](O)[C@@H](CO)O2)cc1/C=C/Br [Brivudin, reference compound]
Minimum cytotoxic concentration (HEL) (HEL cells): ⩾300 μM
EC50 (TK+ VZV strain YS): 11 nM

C[C@H](NP(=O)(OC[C@H]1O[C@@H](n2cc(I)c(=O)[nH]c2=O)C(F)(F)[C@@H]1O)Oc1ccccc1)C(=O)OCc1ccccc1 (stereo partly drawn) [Compound 16, 2′-Deoxy-2′,2′-difluoro-D-5-iodouridine 5′-O-phenyl-(benzoxy-alaninyl)-phosphate]
Minimum cytotoxic concentration (MCC) (HEL) (HEL cells): >100 µM

COC(=O)[C@H](C)NP(=O)(OC[C@H]1O[C@@H](n2cc(I)c(=O)[nH]c2=O)C(F)(F)[C@@H]1O)Oc1ccccc1 (stereo partly drawn) [Compound 17, 2′-Deoxy-2′,2′-difluoro-D-5-iodouridine 5′-O-phenyl-(methoxy-alaninyl)-phosphate]
Minimum cytotoxic concentration (MCC) (HEL) (HEL cells): >100 µM
Minimum cytotoxic concentration (HEL) (HEL cells): >50 µM

C[C@H](NP(=O)(OC[C@H]1O[C@@H](n2cc(Br)c(=O)[nH]c2=O)C(F)(F)[C@@H]1O)Oc1ccccc1)C(=O)OCc1ccccc1 (stereo partly drawn) [Compound 20, 2′-Deoxy-2′,2′-difluoro-D-5-bromouridine 5′-O-phenyl-(benzoxy-alaninyl)-phosphate]
Minimum cytotoxic concentration (MCC) (HEL) (HEL cells): >100 µM
Minimum cytotoxic concentration (HEL) (HEL cells): >50 µM

C[C@H](NP(=O)(OC[C@H]1O[C@@H](n2cc(Cl)c(=O)[nH]c2=O)C(F)(F)[C@@H]1O)Oc1ccccc1)C(=O)OCc1ccccc1 (stereo partly drawn) [Compound 21, 2′-Deoxy-2′,2′-difluoro-D-5-chlorouridine 5′-O-phenyl-(benzoxy-alaninyl)-phosphate]
Minimum cytotoxic concentration (MCC) (HEL) (HEL cells): >100 µM
Minimum cytotoxic concentration (HEL) (HEL cells): >50 µM

Nc1nc(O)c2ncn(COC(CO)CO)c2n1 [Ganciclovir, reference compound]
Minimum cytotoxic concentration (MCC) (HEL) (HEL cells): >100 µM

Nc1ncnc2c1ncn2C1OC(CO)C(O)C1(F)F (stereo not drawn) [adenine derivative]
activity against HIV-1 in PBM cells (HIV-1): 3.4 µM
